Measured values from a melting point compilation (Tetko et al.).

SMILES | melting point [°C]
O=c1ccn(C2OC(CO)C(O)C2O)c(=O)[nH]1 (configuration not stated) | 168
CC(C)(C)OC(=O)N1CCN(Cc2ccc(C=O)cc2)CC1 | 57 to 59
Oc1ccccc1C=Nn1c(S)nnc1C(F)(F)F | 155
N=C(N)NOCCC(N)C(=O)O (configuration not stated) | 184
O=c1[nH]c2ncccc2o1 | 214 to 215
O=C(O)CCCSSCCCC(=O)O | 105 to 110
CC(=O)Nc1ccc(S(=O)(=O)Nc2ccc([N+](=O)[O-])cc2)cc1 | 240
CCOC(=O)c1ccccc1C(=O)c1ccccc1 | 59.5
N#CC1(c2ccc(Cl)cc2)CCCCC1 | 88 to 92
C1CCC(CCC2CCCCC2)CC1 | 11.5
O=Cc1cc2cccnc2s1 | 142 to 143
COc1cc(/C=C/c2ccc([N+](=O)[O-])cc2[N+](=O)[O-])ccc1O | 191
N#CC1CC2CCC1C2 (configuration not stated) | 44
ClCc1ccc(-c2nccs2)cc1 | 67 to 69
c1ccc(CN2CCCNCCN(Cc3ccccc3)CCCNCC2)cc1 | 68
CC(=O)c1csc2ccccc12 | 64
COc1ccc(C)cc1S(=O)(=O)Cl | 82 to 84
N[C@H]1CCC[C@H]1C(=O)O (relative stereo) | 218 to 220
O=c1c2ccccc2cc2ccccn12 | 166
COc1cc(I)cc(C=O)c1O | 129
CC(=O)Oc1c(-c2ccccn2)[nH]c2ccccc12 | 130
Cn1c(/C(C#N)=N/Nc2ccccc2Cl)nc2ccccc21 | 193
c1ccc(O[Si]23OCCN(CCO2)CCO3)cc1 | 218

SMILES | melting point [°C]
COC(=O)c1ccc(CO)cc1 | 45 to 50
CCCCCCCCCCCC(=O)OCc1ccccc1 | 8.5
CC(=O)c1cc(O)ccc1O | 206
CCCSc1ncccc1C(=O)O | 161
Cc1ccccc1NC(N)=O | 190 to 195
CC(=O)OC1CCC2(C)C(C1)CC1(OCCO1)C1C2CCC2(C)C1CCC21OCCO1 (configuration not stated) | 205 to 210
COc1ccc(-c2noc(C)c2C(=O)Cl)cc1 | 79 to 81
N#Cn1c(N)nc2ccccc21 | 175 to 177
COCN1CCOCCOCCN(COC)CCOCCOCC1 | 33 to 38
CCCCCCCCCCCC=CCCCCC(=O)O | 29.8
O=C(O)c1cc(C(F)(F)F)ccc1C(F)(F)F | 79
CC1(C)C(C=C(Cl)Cl)C1C(=O)OC(C#N)c1ccc(F)c(Oc2ccccc2)c1 (configuration not stated) | 93.5
O=C(O)[C@H]1CCCCN1C(=O)OCC1c2ccccc2-c2ccccc21 | 149 to 153
Brc1cncc(-c2nnn[nH]2)c1 | 226
O=C(O)c1ccc(CN2CCS(=O)(=O)CC2)cc1 | 222 to 223
CCC12CCCN3CCc4c(n(c5ccccc45)C(=O)C1)C32 (single isomer, unassigned; (-)) | 173 to 177
O=C1C(=Cc2ccccc2)SC(=S)N1CN1CCCCC1 | 114
Cc1ccnc(C#N)c1 | 87
CCCCCCCCCCCC(=O)CCCC | 37
CCOC(=O)c1cn2ccsc2n1 | 87 to 91
CCSc1nc(N)c(Br)c(O)n1 | 300
CC1COc2c(C3(N)CC3)c(F)cc3c(=O)c(C(=O)O)cn1c23 (configuration not stated) | 269
O=Cc1ccc2[nH]cnc2c1 | 159 to 161

SMILES | melting point [°C]
CC(=O)Nc1c(Br)cc(Br)cc1C(=O)c1ccccc1 | 156
N#Cc1ccc(Cl)cc1N | 161
C=CCOc1c(Cc2cc(C(C)=O)c(O)c(C)c2OCC=C)cc(C(C)=O)c(O)c1C | 143
NC(=O)CCC(N)=O | 260 to 265
C=C1C[C@H]1C(O)C(=O)OC (some centres not stated) | 41.5
ClC1(c2ccccc2)Cc2ccccc21 (configuration not stated) | 60
C=CCCCCCCCCCCCCCCCCC | 23
CC(=O)OC1CCC2C3CC=C4CC5(CCC4(C)C3CCC12C)OCCO5 (configuration not stated) | 196
Cc1ccc(C#N)cn1 | 85
N#Cc1c(S)nc2c(c1C(F)(F)F)CCCC2 | 216 to 220
Nc1nnc(-c2ccccc2)c(Nc2ccc(Cl)cc2)n1 | 297
CCC(C)C(CC)C(N)=O (configuration not stated) | 114
COc1ccc(NC(=O)c2ccccc2)cc1 | 153
CC(C)c1cc(C(C)C)c(S(N)(=O)=O)c(C(C)C)c1 | 115
O=c1cc(C=C(O)C(F)(F)C(F)(F)F)[nH]c(=O)[nH]1 | 278 to 281
Cc1cc2ccccc2cc1CC(F)(F)F | 75 to 75.5
COc1cccnc1Cl | 47
O=C(O)C1(c2ccc(Cl)cc2Cl)CC1 | 140 to 147
CCCOc1ccc(C#N)cc1 | 41
Cc1cnccc1N | 108
CC1=CCC/C1=N\Nc1ccc([N+](=O)[O-])cc1[N+](=O)[O-] | 222
OCCCCCCCCCCCCBr | 34
Oc1cc(F)cc(F)c1 | 53

SMILES | melting point [°C]
Brc1c2ccccc2c(Br)c2ccccc12 | 226
C=CF | -160
O=C1CCSCC1 | 62 to 65
O=C(O)c1cc(F)cc(Br)c1 | 143
CC(=O)OC1CC2(O)C(C)C(=O)C3(C(O)CC4C(C)(C)CCC(OC(C)=O)C4(C)C13)C2O (configuration not stated) | 234
CCOC(=O)C1=C(C)OC(N)=C(C#N)C1c1ccc2c(c1)CCO2 (configuration not stated) | 160 to 166
CC(=O)OC1CCC2(C)C(CCC3C4CC=C(C=Cc5ccccc5)C4(C)CCC32)C1 (configuration not stated) | 119
N#CCC(=O)c1cccc(Cl)c1 | 81
O=C(Cl)c1cc(Br)cc2c1OCC2 | 126 to 127
Brc1ccc(-c2csnn2)cc1 | 154 to 156
ClC1=CC(c2ccccc2)c2ccccc21 (configuration not stated) | 81
CCC1(c2ccc(N)cc2)CCC(=O)NC1=O (configuration not stated) | 150
O=[N+]([O-])c1cc(Br)ccc1O | 92
CNC(=Nc1cc(C)ccn1)SC | 78 to 81
O=[N+]([O-])c1cccnc1Cl | 101
c1cc2c(nn1)CCc1nonc1-2 | 108 to 110
O=CCCc1ccccc1 | 47
Cc1ccc(S(=O)(=O)N(CCO)CCO)cc1 | 94 to 100
CCCCc1ccc(C(N)=O)cc1 | 127 to 129
NC(=O)NCc1ccc(F)cc1 | 172 to 175
CC(C)Cc1ccc(C(C)C(=O)O)cc1 (configuration not stated) | 75
NC(Cc1c[nH]c2ccc(F)cc12)C(=O)O (racemic) | 238 to 239
OC(O)C(Cl)(Cl)Cl | 57

SMILES | melting point [°C]
C/C(=N\NC(=O)c1ccccn1)c1c(O)c2ccccc2n(-c2ccccc2)c1=O | 288 to 290
O=[N+]([O-])c1ccc2c(c1)NCC2 | 68
CCN(CCO)c1cccc(C)c1 | -19
Cc1oc(-c2ccccc2)cc1-c1ccccc1 | 44
N#CC(Br)c1ccccc1 (configuration not stated) | 29
Cc1c(C(=O)O)sc2ccc(Cl)cc12 | 290 to 292
Clc1ccc2ccccc2c1Cl | 36
c1ccc2sncc2c1 | 38
Nc1ccc(S(=O)(=O)c2ccc(NCC(=O)O)cc2)cc1 | 194
CCOC(=O)C(Br)=NNc1ccc([N+](=O)[O-])cc1 | 199 to 200
O=C(CBr)c1cccc2c1OCCCO2 | 55 to 56
Nc1ccc2cc3ccc(N)cc3nc2c1 | 285
CCCOC(=O)C1=C(C)NC(C)=C(C(=O)OCCC)C1c1ccccc1 | 119
BrC(Br)C(Br)(Br)Br | 56.5
ClCc1cc(Br)cc2c1OCOC2 | 103
CCOC(=O)c1[nH]cnc1C | 204 to 206
O=C(O)c1cc(Br)ccc1O | 170
OC(c1ccc(F)cc1)(c1ccc(F)cc1)c1ccc(F)cc1 | 92
C=C(C)C(=O)Nc1ccc(Cl)c(Cl)c1 | 128
O=[N+]([O-])c1ccc(-c2nnc3n2CN(c2ccccc2)CS3)cc1 | > 320
Cc1ccc(S(=O)(=O)n2cc(C=CC(=O)O)c3ccccc32)cc1 | 238 to 241
Cn1c(N)nc2ccccc21 | 203 to 206
OCC1OC1c1ccccc1 (configuration not stated) | 51 to 53

SMILES | melting point [°C]
Nc1nc(=O)[nH]cc1F | 296
Cc1ccc(S(=O)(=O)N/N=C2\C=CC(C)(c3ccccc3)CC2)cc1 (configuration not stated) | 147
Clc1cccc2cc[nH]c12 | 58
CC(C)(N)P(=O)(O)O | 287 to 290
Cc1cc(C)c(Cl)c(O)c1Cl | 87.5
COc1c(Cl)cc(Cl)c(OC)c1C(N)=O | 148 to 149
c1cc2ccc3cccc4ccc(c1)c2c34 | 153
NC(=S)c1ccc(Cl)cc1 | 127 to 130
C=CC(=O)OCCN(CC)CC | -60
O=C(O)CCCCCCCCCCCCC1C=CCC1 (configuration not stated) | 68.5
COc1ccc(C(=O)c2noc(-c3ccc(C)cc3)c2S(=O)(=O)c2ccccc2)cc1 | 156
CC1C(=O)C23C4CC5C(C)(C)CCC(=O)C56COC(CC1C2OC(C)(C)O4)C63 (configuration not stated) | 252
O=C1C(Br)C2c3ccccc3C(C1Br)C(Br)C(=O)C2Br (configuration not stated) | 80
CC(=O)OC1(C(C)=O)CCC2C3C=C(Cl)C4=CC(=O)C=CC4(C)C3CCC21C (configuration not stated) | 168
Nc1nc(N)nc(Cl)n1 | 320
CC(=O)c1ccc(N2CCCC2)cc1 | 129
COC(=O)c1cc(OC)c(OC)cc1N | 129
OCc1cccc2cccc(Br)c12 | 89 to 90
N#CCCO | -46
Nc1cccc(-c2ncccn2)c1 | 99.5 to 102
O=C(O)CCC(=O)c1cccs1 | 121 to 122
C=CCc1c(O)cccc1C=O | 104 to 106
